US11851391B2, “Antifungal compounds and methods of forming the same” (University of Kentucky Research Foundation, priority 2018, dated 2023)
Converted amounts (≈) assume the structure as drawn. “Also recorded” adds a separate entry of the source. Where two headings read alike, the source gives them in different places.

What was measured:
[1] = system: various yeast strains and filamentous fungi (strains A-M); experiment: Antifungal activity over the whole panel (summary of MIC data); format: cell-based, Candida and Aspergillus strains; details: over the fungal strains tested, based on MIC data of Table 1
Summary of the method: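 Yeasts (A–J) followed CLSI M27-A3 broth microdilution at 2–4×10^3 CFU/mL in RPMI 1640 with DMSO <1.25%. Aspergillus (K–M) followed CLSI M38-A2 with spores at 5×10^5 CFU/mL, 48 h at 35 °C. MIC is the lowest concentration giving complete growth inhibition (MIC-0), tested in triplicate.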

[2] = system: human bronchus normal cell line BEAS-2B; experiment: In vitro cytotoxicity assay (resazurin); format: cell-based; details: 24 h
Description: The human bronchus normal cell line BEAS-2B (ATCC CRL-9609) and the human lung carcinoma cell line A549 (ATCC CRL-185) were kind gifts from the laboratories of Dr. Matthew S. Gentry (University of Kentucky, Lexington, KY, USA) and Dr. David K. Orren (University of Kentucky, Lexington, KY, USA). The mammalian cells were grown in Dulbecco's Modified Eagle's Medium (DMEM) (from ATCC) with 10% fetal bovine serum (FBS) (from ATCC) and 1% Pen/Strep (from ATCC). Cell lines were cultured at 37° C. with 5% CO2 and passaged by trypsinization with 0.05% trypsin:0.53 mM EDTA (from ATCC). Cell confluency was determined by using a Nikon Eclipse TS100 microscope (Minato, Tokyo, Japan).
Cytotoxicity assays were performed as previously described with slight modifications. A549 and BEAS-2B cells were first thawed from stocks and grown. The confluent cells were transferred to a 96-well microtiter plates at density of 3000 cells/well. The 96-well plates were incubated at 37° C. with 5% CO2 overnight. […] The stock solutions were serially diluted in 1.5 mL eppendorf tubes to achieve concentrations of 31-0.12 mg/mL. 1 μL of these 1000× compound stock solutions was then added to 999 μL of DMEM medium in 1.5 mL eppendorf tubes to obtain final concentrations of 31-0.12 μg/mL. […] The 96-well plates were further incubated for 24 h at 37° C. with 5% CO2. To evaluate cell survival, each well was treated with 10 μL (25 mg/L) of resazurin sodium salt (Sigma-Aldrich, St. Louis, MO, USA) and incubated for another 6 h. Metabolically active cells can convert resazurin to the highly fluorescent dye, resorufin, and be detected at A560 excitation and A590 emission using a SpectraMax M5 plate reader (Molecular Devices, San Jose, CA, USA). […] The percentage survival rates were calculated by using the following formula: % cell survival=[(fluorescence of sample)−(fluorescence of background)]×100/[(fluorescence of negative control)−(fluorescence of background)]. Experiments were done in duplicate.

[3] = system: C. albicans ATCC MYA-2876(S) (strain C); experiment: MIC determination, in vitro antifungal assay (CLSI M27-A3); format: cell-based, Candida albicans; details: MIC-0, 48 h at 35° C.
Summary of the method: (§1)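 Inoculum 2-4×10^3 CFU/mL from overnight YPD culture (OD600 0.12 ≈ 1×10^6 CFU/mL). DMSO <1.25% final.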

[4] = system: C. albicans ATCC MYA-1003(R) (strain G); experiment: as above; format: cell-based, Candida albicans; details: MIC-0, 48 h at 35° C.
Summary of the method: as §1

[5] = Candida albicans, 48 h, read-out: MIC

Row | Structure (SMILES) | MIC [3, 5] | MIC [3] | MIC [4, 5] | MIC [4] | antifungal activity (in words) [1] | toxicity (in words) ([2]; BEAS-2B at 15.5 μg/mL) | toxicity (in words) ([2]; BEAS-2B at 31 μg/mL)
1 | COc1ccc(N/N=C/c2ccc(-c3ccc(/C=N/Nc4ccc(OC)cc4)cc3)cc2)cc1 [Compound 15b] | 7.8 to 15.6 µg/mL (≈ 17.3 to 34.6 µM) | 7.8 µg/mL (≈ 17.3 µM) | 7.8 to 15.6 µg/mL (≈ 17.3 to 34.6 µM) | 7.8 µg/mL (≈ 17.3 µM) | good activity against the majority of the fungal strains tested | non-toxic | 
2 | C(=N\Nc1ccccc1)/c1ccc(-c2cccc(/C=N/Nc3ccccc3)c2)cc1 [Compound 7a] | 31.3 µg/mL (≈ 80.2 µM) |  | 1.95 to 3.9 µg/mL (≈ 4.99 to 9.99 µM) | 3.9 µg/mL (≈ 9.99 µM) |  |  | 
3 | Fc1ccc(N/N=C/c2ccc(-c3cccc(/C=N/Nc4ccc(F)cc4F)c3)cc2)c(F)c1 [Compound 20a] | 15.6 µg/mL (≈ 33.7 µM) |  | 7.8 µg/mL (≈ 16.9 µM) |  | overall antifungal activity against all the strains tested; also recorded: good activity against the majority of the fungal strains tested | non-toxic | 
4 | Fc1ccc(N/N=C/c2ccc(-c3ccc(/C=N/Nc4ccc(F)cc4)cc3)cc2)cc1 [Compound 17b] | 7.8 to 15.6 µg/mL (≈ 18.3 to 36.6 µM) | 7.8 µg/mL (≈ 18.3 µM) | 7.8 to 15.6 µg/mL (≈ 18.3 to 36.6 µM) | 7.8 µg/mL (≈ 18.3 µM) |  |  | 
5 | Fc1cccc(N/N=C/c2ccc(-c3cccc(/C=N/Nc4cccc(F)c4)c3)cc2)c1 [Compound 12a] | 7.8 to 15.6 µg/mL (≈ 18.3 to 36.6 µM) | 7.8 µg/mL (≈ 18.3 µM) | 7.8 to 15.6 µg/mL (≈ 18.3 to 36.6 µM) | 7.8 µg/mL (≈ 18.3 µM) | good activity |  | 

More lines, main results first:

Row | MIC [3, 5] | MIC [3] | MIC [4, 5] | MIC [4] | Structure (SMILES) | antifungal activity (in words) [1] | toxicity (in words) ([2]; BEAS-2B at 15.5 μg/mL) | toxicity (in words) ([2]; BEAS-2B at 31 μg/mL)
6 | 1.95 to 3.9 µg/mL (≈ 4.33 to 8.66 µM) | 3.9 µg/mL (≈ 8.66 µM) |  |  | COc1ccc(N/N=C/c2ccc(-c3cccc(/C=N/Nc4ccc(OC)cc4)c3)cc2)cc1 [Compound 15a] |  | non-toxic | 
7 | 7.8 µg/mL (≈ 18.3 µM) |  | 1.95 to 3.9 µg/mL (≈ 4.57 to 9.14 µM) | 3.9 µg/mL (≈ 9.14 µM) | Fc1ccc(N/N=C/c2ccc(-c3cccc(/C=N/Nc4ccc(F)cc4)c3)cc2)cc1 [Compound 17a] | good activity against the majority of the fungal strains tested |  | non-toxic
8 | 1.95 to 3.9 µg/mL (≈ 4.29 to 8.58 µM) | 3.9 µg/mL (≈ 8.58 µM) | 7.8 µg/mL (≈ 17.2 µM) |  | C/C(=N\Nc1ccc(F)cc1)c1ccc(-c2ccc(/C(C)=N/Nc3ccc(F)cc3)cc2)cc1 [Compound 17c, 4,4′-bis((E)-1-(2-(4-fluorophenyl)hydrazono)ethyl)-1,1′-biphenyl] |  | non-toxic | 
